From patent publication US20110124617A1, “Combination Therapy for BreastCancer Comprising an Antiestrogenic Agent” (priority 2008, published 2011)

What was measured:
rat uterus = conditions: cited from earlier work; for estrogenic stimulation on the rat uterus: compound alone
hot flashes = test: alleviation of hot flashes in a postmenopausal breast cancer patient treated with tamoxifen citrate; type: in vivo, human; conditions: postmenopausal patient on tamoxifen citrate (20 mg tamoxifen free base)
Method: A postmenopausal patient is being treated in the adjuvant setting for breast cancer with the SERM tamoxifen citrate (dosage of 20 mg tamoxifen free base). They are experiencing hot flashes as a result of their treatment.

O=C(c1ccc(OCCN2CCCCC2)cc1)c1c(-c2ccc(O)cc2)sc2cc(O)ccc12 [raloxifene, reference compound]
estrogenic stimulation on the rat uterus (rat uterus): did stimulate the uterus

CC/C(=C(\c1ccccc1)c1ccc(OCCN(C)C)cc1)c1ccccc1 [tamoxifen, reference compound]
estrogenic stimulation on the rat uterus (rat uterus): did stimulate the uterus

CCNCCc1ccc(CN(CC)c2cc(OC)ccc2[C@@H]2CCc3cc(O)ccc3C2)cc1 [compound of formula I]
alleviation of hot flashes (hot flashes; 20 mg once daily): partial alleviation of their symptoms | alleviation of hot flashes (hot flashes; dosage adjusted to 50 mg): almost complete alleviation of their hot flushes | estrogenic stimulation on the rat uterus (rat uterus): no estrogenic stimulation | antagonism of the estrogenic effect of estradiol on the uterus (rat uterus; with estradiol): could antagonize the estrogenic effect of estradiol on the uterus and bring it back to control levels
